Assay results taken from patent US7608392B2, “Diagnostic assay for measuring a cell mediated immune response” (priority 2002, dated 2009).
Values joined by “and” are separate entries in the source; they are usually repeats but may differ in a detail not shown here. Equal values may be shown once.

How the values were obtained:
Format in all cases: cell-based, human
whole blood [1] = experiment: Whole blood IFN-γ response to antigen with or without dextrose, 24-well plate, Quantiferon-TB ELISA (Example 2)
whole blood [2] = conditions: blood collection tube, dextrose added; one line per subject; * OD outside the range of the plate reader
whole blood [3] = experiment: Whole blood IFN-γ response to HuPPD or Mitogen, 24-well plate versus blood collection tube, Quantiferon-TB ELISA (Example 4)
whole blood [4] = system: whole blood

Row | Substance | Concentration of IFN-γ found for each plasma sample, +Dextrose (whole blood [1]; 24-well plate, 20 hours 37° C., dextrose 2 mg/mL, one line per donor) | Concentration of IFN-γ found for each plasma sample, −Dextrose (whole blood [1]; 24-well plate, 20 hours 37° C., without dextrose, one line per donor) | Fold increase with dextrose (whole blood [1]; IFN-γ +Dextrose 2 mg/mL / −Dextrose, one line per donor) | Change in IFN-γ detected with addition of dextrose (in words) (whole blood [1]; dextrose 2 mg/mL, 24-well plate) | IFN-γ, In-Tube Method, Mitogen (whole blood [2]) | Amount of IFN-γ detected, Mitogen 24-well (whole blood [3]; after subtraction of saline negative control, 24-well plate, one line per donor) | Amount of IFN-γ detected, Mitogen Tube (whole blood [3]; after subtraction of saline negative control, blood collection tube, mean of duplicate tubes, one line per donor) | Mean fold increase, Mitogen Tube/24-well (whole blood [3]; mean over donors) | Mitogen Tube/24-well (whole blood [3]; ratio of IFN-γ, one line per donor) | Mean fold increase, TetTox Tube/24 well (whole blood [4])
1 | phytohemagglutinin [Mitogen] | 122.76 IU/mL and 25.71 IU/mL | 108.72 IU/mL and 28.67 IU/mL | 0.90 and 1.13 | slight increase in IFN-γ detected for one of the donors and a slight decrease for the other | 52.50 IU/mL and 4.15 IU/mL and 17.377* IU/mL and 5.57 IU/mL and 2.31 IU/mL and 11.77 IU/mL and 21.063* IU/mL and 4.02 IU/mL and 11.23 IU/mL and 17.05* IU/mL | 83.34 IU/mL and 1.13 IU/mL and 10.04 IU/mL and 6.85 IU/mL and 12.32 IU/mL and 8.77 IU/mL and 76.98 IU/mL and 65.02 IU/mL and 8.14 IU/mL and −0.56 IU/mL and 21.79 IU/mL and 30.58 IU/mL and 28.26 IU/mL and 8.10 IU/mL and 2.75 IU/mL and 6.14 IU/mL and 14.05 IU/mL and 2.46 IU/mL and 11.80 IU/mL and 7.69 IU/mL | 61.94 IU/mL and 13.13 IU/mL and 7.95 IU/mL and 3.45 IU/mL and 13.32 IU/mL and 5.29 IU/mL and 68.58 IU/mL and 47.53 IU/mL and 5.80 IU/mL and −0.79 IU/mL and 16.34 IU/mL and 22.52 IU/mL and 19.16 IU/mL and 5.71 IU/mL and 1.88 IU/mL and 3.55 IU/mL and 9.07 IU/mL and 7.91 IU/mL and 8.73 IU/mL and 3.52 IU/mL | 0.73 | 0.74 (3×) and 0.79 and 0.05 and 1.08 and 0.60 and 0.89 and 0.73 and 0.71 (2×) and 0.75 and 0.68 and 0.58 and 0.65 and 3.22 and 0.46 | –
2 | tetanus toxoid | – | – | – | – | – | – | – | – | – | 4.5 and 4.51
